Data reported in patent publication US6538145B2, “24-hydroxy vitamin D derivatives” (Chugai Seiyaku Kabushiki Kaisha, priority 1998, dated 2003).

Target: T1, vitamin D receptor derived from chick intestine (Gallus gallus, UniProt O42392)
T1 construct: vitamin D receptor derived from chick intestine; from tissue; host or cells: chick intestine
T1 sequence (O42392 1-451): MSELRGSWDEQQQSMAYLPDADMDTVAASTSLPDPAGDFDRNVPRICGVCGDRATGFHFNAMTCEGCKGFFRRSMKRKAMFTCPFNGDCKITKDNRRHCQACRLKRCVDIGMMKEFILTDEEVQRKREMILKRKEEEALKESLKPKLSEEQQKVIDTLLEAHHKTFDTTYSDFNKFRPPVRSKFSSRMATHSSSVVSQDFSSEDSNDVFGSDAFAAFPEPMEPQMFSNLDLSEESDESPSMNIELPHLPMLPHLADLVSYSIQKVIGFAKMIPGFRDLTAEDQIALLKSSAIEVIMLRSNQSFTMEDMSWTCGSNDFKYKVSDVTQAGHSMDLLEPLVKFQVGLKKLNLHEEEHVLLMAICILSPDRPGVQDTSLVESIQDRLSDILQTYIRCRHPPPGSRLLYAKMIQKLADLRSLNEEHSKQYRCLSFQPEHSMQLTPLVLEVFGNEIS
Experiment: Assay for binding to vitamin D receptor (VDR), radio receptor assay (RRA)
Conditions: competition with 3H-1α,25-dihydroxyvitamin D3; test compound 1 to 100,000 nM; 4° C. for 3 hours; result in words only
Procedure: By the radio receptor assay (RRA), compounds 1a and 1b of the present invention were tested for their ability to bind to vitamin D receptor derived from chick intestine.
^3H-1α,25-dihydroxyvitamin D3 was dissolved in ethanol (20 μl) at a concentration of 10,000 dpm. Three test compounds, 1α,25-dihydroxyvitamin D3, compound la and compound 1b, were diluted with ethanol to give concentrations in the range of from 1 to 100,000 nM, respectively.
To each of small tubes, 20 μl of ^3H-1α,25 -dihydroxyvitamin D3 in solution and 50 μl of a test compound (i.e., 1α,25-dihydroxyvitamin D3, compound 1a or compound 1b) in solution were added. A solution of vitamin D receptor was prepared by dissolving 25 mg of VDR in 70 ml of 0.05M phosphate buffer solution containing 0.3 M KCl and 5 mM DTT (dithiothreitol) and 0.5 ml of the resulting solution was added to each tube, followed by mixing. […] To 0.5 ml of the supernatant, 5 ml of liquid scintillator was added for radioactivity measurement. The B/B0 value was calculated from the measurements (B: radioactivity measured in the presence of a test compound, B0: radioactivity measured in the absence of the test compound).

C=C1C(=CC=C2CCCC3(C)C2CCC3C(C)CCC(O)C(C)(C)O)CC(O)C(OCCCO)C1O [Compound 1a, (5Z,7E)-(1R,2R,3R,24S)-2-(3-hydroxypropoxy)-9,10-secocholesta-5,7,10(19)-triene-1,3,24,25-tetraol]
affinity for the vitamin D receptor (B/B0, FIG. 1): show affinity for the vitamin D receptor
